Laboratory results: patent US6737383B1, “Herbicidal oxadiazolidines” (priority 1999, dated 2004)

How the values were obtained:
blackgrass = experiment: Test B pre/postemergence blackgrass; type: in vivo, Alopecurus myosuroides
How it was run: (§1)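 Herbicidal effect was estimated by eye on a ten-point control scale after plants spent twelve to sixteen days in a greenhouse following soil or foliar treatment. Foliar sprays targeted plants at one to four leaves; all doses were formulated in a non-phytotoxic solvent with surfactant.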

surinam grass = experiment: Test B pre/postemergence surinam grass; type: in vivo, Brachiaria decumbens
How it was run: as §1

smallflower flatsedge = experiment: Test B flood test smallflower flatsedge; type: in vivo, Cyperus difformis; conditions: for Plant response rating, S. Flatsedge (0 to 10 scale, 0 is no effect, 10 is complete control) / S. Flatsedge plant response rating (0 to 10 scale, 0 is no effect, 10 is complete control): visual evaluation after twelve to sixteen days; for S. Flatsedge plant response rating (0 to 10 scale, 0 is no effect, 10 is complete control): under heading Pre-emergence
How it was run: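 Each value is a visual injury score relative to controls, with 10 meaning complete control and 0 no effect. Evaluation took place twelve to sixteen days after the 2-leaf-stage plants were treated and kept in the greenhouse.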

bedstraw = experiment: Test B pre/postemergence bedstraw; type: in vivo, Galium aparine
How it was run: as §1

[1] = Postemergence, Rate 250 g/ha, scale 0 to 10
[2] = Postemergence, Rate 500 g/ha, scale of 0 to 10 where 0 is no effect and 10 is complete control
[3] = Preemergence, Rate 62 g/ha, scale 0 to 10 (0 no effect, 10 complete control)
[4] = Preemergence, Rate 125 g/ha, scale of 0 to 10 where 0 is no effect and 10 is complete control
[5] = Preemergence, Rate 250 g/ha, scale 0 to 10, 0 is no effect, 10 is complete control
[6] = Preemergence, Rate 500 g/ha, scale 0 to 10, 0 is no effect, 10 is complete control
[7] = Rate 62 g/ha, Postemergence, scale of 0 to 10 where 0 is no effect and 10 is complete control
[8] = Rate 125 g/ha, Postemergence, scale 0 to 10, 0 is no effect, 10 is complete control
[9] = Postemergence, Rate 250 g/ha, scale 0 to 10, 0 no effect, 10 complete control
[10] = Preemergence, Rate 500 g/ha, scale of 0 to 10 where 0 is no effect and 10 is complete control
[11] = Preemergence, Rate 62 g/ha, scale of 0 to 10 where 0 is no effect and 10 is complete control
[12] = Preemergence, Rate 125 g/ha, 0 is no effect, 10 is complete control
[13] = Preemergence, Rate 500 g/ha, scale 0 to 10 (0 no effect, 10 complete control)
[14] = Rate 125 g/ha, Postemergence, scale 0 to 10
[15] = Rate 500 g/ha, Postemergence, scale 0 to 10
[16] = Rate 500 g/ha, Postemergence, scale 0 to 10, 0 no effect, 10 complete control
[17] = Rate 62 g/ha, headed Pre-emergence (flood test species), scale 0 to 10 (0 no effect, 10 complete control)
[18] = Rate 125 g/ha, Pre-emergence, flood test species, scale 0 to 10 where 0 is no effect and 10 is complete control
[19] = Rate 250 g/ha, Pre-emergence, flood-test species, scale 0 to 10, 0 is no effect, 10 is complete control
[20] = Rate 500 g/ha, Pre-emergence, flood test species, scale 0 to 10 (0 no effect, 10 complete control)
[21] = Rate 62 g/ha, Postemergence, scale 0 to 10 (0 no effect, 10 complete control)
[22] = Rate 62 g/ha, flood test species, Pre-emergence
[23] = Rate 125 g/ha, flood test species
[24] = Rate 250 g/ha, Pre-emergence (flood test species), scale 0 to 10, 0 is no effect, 10 is complete control
[25] = Postemergence, Rate 62 g/ha, scale 0 to 10, 0 is no effect, 10 is complete control
[26] = Preemergence, Rate 62 g/ha, scale 0 to 10, 0 is no effect, 10 is complete control
[27] = Preemergence, Rate 125 g/ha, scale 0 to 10 (0 no effect, 10 complete control)
[28] = Preemergence, Rate 250 g/ha, scale of 0 to 10 where 0 is no effect and 10 is complete control
[29] = Preemergence, Rate 500 g/ha, scale 0 (no effect) to 10 (complete control)
[30] = Rate 125 g/ha, Postemergence, scale 0 to 10, 0 no effect, 10 complete control
[31] = Rate 500 g/ha, Postemergence, 0 to 10 scale (0 no effect, 10 complete control)
[32] = Postemergence, Rate 125 g/ha, scale 0 to 10, 0 is no effect, 10 is complete control
[33] = Rate 250 g/ha, Postemergence, scale of 0 to 10 where 0 is no effect and 10 is complete control

## C=CC[Si](C)(C)Cn1c(=O)on(C(=O)N(c2ccc(F)cc2)C(C)C)c1=O [Compound 426]
blackgrass; [1]
  Blackgrass plant response rating: 8
blackgrass; [2]
  Blackgrass plant response rating: 8
blackgrass; [3]
  Plant response rating, Blackgrass: 4
blackgrass; [4]
  Plant response rating, Blackgrass: 6
blackgrass; [5]
  Blackgrass plant response rating: 9
blackgrass; [6]
  Blackgrass plant response rating: 9
blackgrass; [7]
  Blackgrass plant response rating: 3
blackgrass; [8]
  Blackgrass plant response rating: 6
Surinam grass; [9]
  B. signalgrass plant response rating: 7
Surinam grass; [2]
  B. signalgrass plant response rating: 8
Surinam grass; [3]
  Plant response rating, B. signalgrass: 4
Surinam grass; [4]
  Plant response rating, B. signalgrass: 4
Surinam grass; [5]
  B. signalgrass plant response rating: 6
Surinam grass; [10]
  B. signalgrass plant response rating: 8
Surinam grass; [7]
  B. signalgrass plant response rating: 2
Surinam grass; [8]
  B. signalgrass plant response rating: 5
Smallflower flatsedge; Postemergence block (flood test species), Rate 250 g/ha, scale 0 to 10
  S. Flatsedge plant response rating: 0
Smallflower flatsedge; Postemergence section (flood test species), Rate 500 g/ha, scale of 0 to 10 where 0 is no effect and 10 is complete control
  S. Flatsedge plant response rating: 0
Smallflower flatsedge; Rate 125 g/ha, Postemergence section (flood test species), scale 0 to 10, 0 is no effect, 10 is complete control
  S. Flatsedge plant response rating: 0
bedstraw; [1]
  Bedstraw plant response rating: 9
bedstraw; [2]
  Bedstraw plant response rating: 9

## COc1nc(OC)nc(N(C(=O)n2oc(=O)n(C(C)C)c2=O)C(C)C)n1 [Compound 182]
blackgrass; [11]
  Blackgrass plant response rating: 0
blackgrass; [12]
  Blackgrass plant response rating (0 to 10 scale): 0
blackgrass; [5]
  Blackgrass plant response rating: 0
blackgrass; [13]
  Blackgrass plant response rating: 0
blackgrass; [7]
  Blackgrass plant response rating: 0
blackgrass; [14]
  Blackgrass plant response rating: 0
blackgrass; Rate 250 g/ha, Postemergence
  Plant response rating (0 to 10; 0 is no effect, 10 is complete control), Blackgrass: 0
blackgrass; [15]
  Blackgrass plant response rating: 0
Surinam grass; [11]
  B. signalgrass plant response rating: 0
Surinam grass; [12]
  B. signalgrass plant response rating (0 to 10 scale): 0
Surinam grass; [5]
  B. signalgrass plant response rating: 0
Surinam grass; [13]
  B. signalgrass plant response rating: 0
Surinam grass; [7]
  B. signalgrass plant response rating: 0
Surinam grass; Rate 125 g/ha, Postemergence, scale 0 (no effect) to 10 (complete control)
  B. signalgrass plant response rating: 0
Surinam grass; Rate 250 g/ha, Postemergence, scale 0 to 10, 0 is no effect, 10 is complete control
  Plant response rating, B. signalgrass: 0
Surinam grass; [16]
  B. signalgrass plant response rating: 0
Smallflower flatsedge; [17]
  S. Flatsedge plant response rating: 0
Smallflower flatsedge; [18]
  S. Flatsedge plant response rating: 0
Smallflower flatsedge; [19]
  S. Flatsedge plant response rating: 0
Smallflower flatsedge; [20]
  S. Flatsedge plant response rating: 0
bedstraw; [11]
  Bedstraw plant response rating: 0
bedstraw; [12]
  Bedstraw plant response rating (0 to 10 scale): 0
bedstraw; [5]
  Bedstraw plant response rating: 0
bedstraw; [13]
  Bedstraw plant response rating: 0
bedstraw; [7]
  Bedstraw plant response rating: 0
bedstraw; [14]
  Bedstraw plant response rating: 0
bedstraw; Rate 250 g/ha, Postemergence
  Plant response rating (0 to 10; 0 is no effect, 10 is complete control), Bedstraw: 0
bedstraw; [15]
  Bedstraw plant response rating: 0

## COCC(OC)n1c(=O)on(C(=O)N(c2ccc(F)cc2)C(C)C)c1=O (stereo not shown) [Compound 446]
blackgrass; [1]
  Blackgrass plant response rating: 8
blackgrass; [2]
  Blackgrass plant response rating: 9
blackgrass; [11]
  Plant response rating, Blackgrass: 5
blackgrass; [4]
  Plant response rating, Blackgrass: 7
blackgrass; [5]
  Blackgrass plant response rating: 8
blackgrass; [6]
  Blackgrass plant response rating: 10
blackgrass; [21]
  Blackgrass plant response rating: 4
blackgrass; [8]
  Blackgrass plant response rating: 8
Surinam grass; [9]
  B. signalgrass plant response rating: 6
Surinam grass; [2]
  B. signalgrass plant response rating: 8
Surinam grass; [11]
  Plant response rating, B. signalgrass: 0
Surinam grass; [4]
  Plant response rating, B. signalgrass: 6
Surinam grass; [5]
  B. signalgrass plant response rating: 7
Surinam grass; [6]
  B. signalgrass plant response rating: 8
Surinam grass; [21]
  B. signalgrass plant response rating: 2
Surinam grass; [8]
  B. signalgrass plant response rating: 3
Smallflower flatsedge; [22]
  Plant response rating, S. Flatsedge (0 to 10 scale, 0 is no effect, 10 is complete control): 0
Smallflower flatsedge; [23]
  S. Flatsedge plant response rating (0 to 10 scale, 0 is no effect, 10 is complete control): 0
Smallflower flatsedge; [24]
  S. Flatsedge plant response rating: 0
Smallflower flatsedge; [20]
  S. Flatsedge plant response rating: 0
bedstraw; [21]
  Bedstraw plant response rating: 0

## Cc1ccccc1-n1c(=O)on(C(=O)N(c2ccc(Cl)cc2)C(C)C)c1=O [Compound 41]
blackgrass; [25]
  Blackgrass plant response rating: 0
blackgrass; [9]
  Blackgrass plant response rating: 3
blackgrass; [26]
  Plant response rating, Blackgrass: 0
blackgrass; [27]
  Plant response rating, Blackgrass: 0
blackgrass; [28]
  Plant response rating, Blackgrass: 2
blackgrass; [29]
  Blackgrass plant response rating: 4
blackgrass; [30]
  Blackgrass plant response rating: 0
blackgrass; [31]
  Blackgrass plant response rating: 4
Surinam grass; [25]
  B. signalgrass plant response rating: 0
Surinam grass; [9]
  B. signalgrass plant response rating: 0
Surinam grass; [26]
  Plant response rating, B. signalgrass: 0
Surinam grass; [27]
  Plant response rating, B. signalgrass: 0
Surinam grass; [28]
  Plant response rating, B. signalgrass: 4
Surinam grass; [29]
  B. signalgrass plant response rating: 7
Surinam grass; [30]
  B. signalgrass plant response rating: 0
Surinam grass; [31]
  B. signalgrass plant response rating: 0
Smallflower flatsedge; [25]
  S. Flatsedge plant response rating: 0
Smallflower flatsedge; Rate 125 g/ha, Postemergence section (flood test species), scale 0 to 10, 0 no effect, 10 complete control
  S. Flatsedge plant response rating: 0
Smallflower flatsedge; flood test, listed under Postemergence, Rate 250 g/ha, scale 0 to 10, 0 no effect, 10 complete control
  S. Flatsedge plant response rating: 0
bedstraw; [25]
  Bedstraw plant response rating: 0
bedstraw; [26]
  Plant response rating, Bedstraw: 0
bedstraw; [27]
  Plant response rating, Bedstraw: 0
bedstraw; [28]
  Plant response rating, Bedstraw: 0
bedstraw; [29]
  Bedstraw plant response rating: 0

## CC(C)N(C(=O)n1oc(=O)n(C2CCCCCC2)c1=O)c1ccc(Cl)cc1 [Compound 339]
blackgrass; [32]
  Plant response rating, Blackgrass: 0
blackgrass; [11]
  Blackgrass plant response rating: 0
blackgrass; Preemergence, Rate 125 g/ha
  Blackgrass plant response rating (0 to 10 scale): 0
blackgrass; [28]
  Blackgrass plant response rating: 2
blackgrass; [10]
  Blackgrass plant response rating: 3
blackgrass; [7]
  Blackgrass plant response rating: 0
blackgrass; [33]
  Plant response rating, Blackgrass: 0
blackgrass; [16]
  Plant response rating, Blackgrass: 2
Surinam grass; [32]
  Plant response rating, B. signalgrass: 0
Surinam grass; [11]
  B. signalgrass plant response rating: 0
Surinam grass; Preemergence, Rate 125 g/ha
  B. signalgrass plant response rating (0 to 10 scale, 0 is no effect, 10 is complete control): 0
Surinam grass; [28]
  B. signalgrass plant response rating: 0
Surinam grass; [10]
  B. signalgrass plant response rating: 0
Surinam grass; [7]
  B. signalgrass plant response rating: 0
Surinam grass; [33]
  Plant response rating, B. signalgrass: 0
Surinam grass; [16]
  Plant response rating, B. signalgrass: 0
Smallflower flatsedge; [17]
  S. Flatsedge plant response rating: 0
Smallflower flatsedge; [18]
  S. Flatsedge plant response rating: 0
Smallflower flatsedge; [19]
  S. Flatsedge plant response rating: 0
Smallflower flatsedge; [20]
  S. Flatsedge plant response rating: 1
bedstraw; [32]
  Plant response rating, Bedstraw: 2
bedstraw; [11]
  Bedstraw plant response rating: 0
bedstraw; Preemergence, Rate 125 g/ha
  Bedstraw plant response rating (0 to 10 scale): 0
bedstraw; [28]
  Bedstraw plant response rating: 0
bedstraw; [10]
  Bedstraw plant response rating: 0
bedstraw; [7]
  Bedstraw plant response rating: 0
bedstraw; [33]
  Plant response rating, Bedstraw: 7
bedstraw; [16]
  Plant response rating, Bedstraw: 8

## CC(C)N(C(=O)n1oc(=O)n(CNC(=O)c2ccccc2)c1=O)c1ccc(F)cc1 [Compound 445]
blackgrass; [1]
  Blackgrass plant response rating: 0
blackgrass; [2]
  Blackgrass plant response rating: 0
blackgrass; [11]
  Plant response rating, Blackgrass: 0
blackgrass; [4]
  Plant response rating, Blackgrass: 0
blackgrass; [5]
  Blackgrass plant response rating: 0
blackgrass; [6]
  Blackgrass plant response rating: 1
blackgrass; [21]
  Blackgrass plant response rating: 0
blackgrass; [8]
  Blackgrass plant response rating: 0
Surinam grass; [9]
  B. signalgrass plant response rating: 0
Surinam grass; [2]
  B. signalgrass plant response rating: 0
Surinam grass; [11]
  Plant response rating, B. signalgrass: 0
Surinam grass; [4]
  Plant response rating, B. signalgrass: 0
Surinam grass; [5]
  B. signalgrass plant response rating: 2
Surinam grass; [6]
  B. signalgrass plant response rating: 3
Surinam grass; [21]
  B. signalgrass plant response rating: 0
Surinam grass; [8]
  B. signalgrass plant response rating: 0
Smallflower flatsedge; [22]
  Plant response rating, S. Flatsedge (0 to 10 scale, 0 is no effect, 10 is complete control): 0
Smallflower flatsedge; [23]
  S. Flatsedge plant response rating (0 to 10 scale, 0 is no effect, 10 is complete control): 0
Smallflower flatsedge; [24]
  S. Flatsedge plant response rating: 0
Smallflower flatsedge; [20]
  S. Flatsedge plant response rating: 0
